The results in this text go back to patent publication US20020131997A1, “Method for treating hematologic disorders with water insoluble 20 (S)-camptothecin” (priority 2000, published 2002).

The subject of series [1] is Ph-negative bcr/abl-negative CML. The series can be described thus: Clinical treatment of patients with Ph-negative bcr/abl-negative CML with oral 9NC gelules. The series is classed as in vivo, human. The source says:
(§1) Twenty five patients with hematologic disorders were admitted for the treatment with 9NC. Among them, 9 patients had Philadelphia chromosome (Ph)-negative bcr/abl-negative CML; 8 patients had Philadelphia chromosome (Ph)-positive CML (6 in chronic phase and 2 in accelerated phase); 7 patients had CMML; and one had MDS (RAEB, refractory anemia with excess blasts). Median age of patients was 65 years, ranging from age 29 to age 77. Median white blood cell (WBC) counts was 25.2×10^9/L (range: 4.5-76×10^9/L); and median platelet count was 223×10^9/L (range: 23-1042×10^9/L). Among the patients for the treatment, 14 patients had splenomegaly, with median of 10.5 cms below costal margin (range: 1-13 cms). The 8 patients with Ph-positive CML were previously treated with interferon (IFN). Except for 5 patients, 12 other patients were also previously treated with IFN. Prior to the treatment of the present invention, the patients were off chemotherapy using other anticancer drugs for 2 weeks and recovered from toxicity of that chemotherapy.
(§2) The dosing schedule was designed as the following. The drug product, 9NC gelules, are orally administered into patients for 5 consecutive days every week. Four weeks of treatment with 9NC oral dosage defines one course of treatment. Courses are repeated every 4-6 weeks, depending on patient response and recovery of WBC and platelet counts. The total daily 9NC dose is given in 2 equal divided doses (e.g. 8 a.m. and 8 p.m.).
(§3) The dose of treatment with 9NC was designed to be modified at 5 dose levels according to myelosuppression and extramedullary toxicity. The starting dose schedule at level 0 is 2.0 mg/m^2 9NC orally daily, 5 days every week. Dose level +1 is 2.5 mg/m^2 9NC orally daily, 5 days every week. Dose level +2 is 3.0 mg/m^2 9NC orally daily, 5 days every week. Dose level −1 is 1.5 mg/m^2 9NC orally daily, 5 days every week. Dose level −2 is 1.5 mg/m^2 9NC orally daily, 4 days every week.
(§4) During the course of treatment, if there is no response to 9NC and the patient's hematologic toxicity is less than grade II, the dose level is increase by 1 level. If there is no response to 9NC and the patient's hematologic toxicity is at grade II, the dose level stays at the same level. If there is response to 9NC and the patient's hematologic toxicity is at grade III or IV, the dose level is decreased by 1 level. If there is no response to 9NC and the patient's hematologic toxicity is at grade III or IV, the patient is off the treatment with 9NC.
If low hematologic counts is due to myelosuppression, not disease, subsequent courses can be delayed until WBC >2.0×10^9/L and platelets >80×10^9/L. If low counts are attributed to persistent disease, subsequent courses are started regardless of the counts.
The criteria for response to patients with CML are as follows.
Complete hematologic remission (CHR): Normalization for at least 4 weeks of the bone marrow (less than 5% blasts) and peripheral blood with WBC <10×10^9/L and no peripheral blasts, promyelocytes or myelocytes. This is in addition to disappearance of all signs and symptoms of the disease.
Partial hematologic remission (PHR): CHR except for persistence of immature cells (myelocytes, metamyelocytes), or splenomegaly <50% of pretreatment, or thrombocytosis >450×10^9/L but <50% of pretreatment.
Gelules of 9NC were orally administrated into the 9 patients with Ph-negative bcr/abl-negative CML. The starting dose was 2 mg/m^2 daily for 5 days every week. Doses were adjusted according to myelosuppression and extramedullary toxicity as described above. […] Thus, the objective response (OR) was 6/9.

Another series deals with mice. The series can be described thus: Toxicology studies in mice. In kind it is in vivo.
The test system of a further series is CMML. The series is described as follows: Clinical treatment of patients with CMML with oral 9NC gelules. In kind it is in vivo, human.
Text: as §1, §2, §3, §4
If low hematologic counts is due to myelosuppression, not disease, subsequent courses can be delayed until WBC >2.0×10^9/L and platelets >80×10^9/L. If low counts are attributed to persistent disease, subsequent courses are started regardless of the counts. […]

In the next series the test system is MDS of the RAEB type. The series is described as follows: Clinical treatment of patient with MDS (RAEB type) with oral 9NC gelules. The series is classed as in vivo, human. Conditions: one patient, starting dose 2 mg/m^2 daily for 5 days every week.
Text: as §1
The dosing schedule was designed as the following. The drug product, 9NC gelules, are orally administered into patients for 5 consecutive days every week. Four weeks of treatment with 9NC oral dosage defines one course of treatment. Courses are repeated every 4-6 weeks, depending on patient response and recovery of WBC and platelet counts. […]

The test system of the next series is Ph-positive CML. The series is described as follows: Clinical treatment of patients with Ph-positive CML with oral 9NC gelules. In kind it is in vivo, human. Conditions: of 8 patients.
Text: as §1, §2
The dose of treatment with 9NC was designed to be modified at 5 dose levels according to myelosuppression and extramedullary toxicity. The starting dose schedule at level 0 is 2.0 mg/m^2 9NC orally daily, 5 days every week. Dose level +1 is 2.5 mg/m^2 9NC orally daily, 5 days every week. Dose level +2 is 3.0 mg/m^2 9NC orally daily, 5 days every week. Dose level −1 is 1.5 mg/m^2 9NC orally daily, 5 days every week. Dose level −2 is 1.5 mg/m^2 9NC orally daily, 4 days every week. […]

The nature of series [2]: Stability of 9NC at room temperature, activity determined by HPLC. The series is classed as physicochemical. Conditions: left at room temperature (25° C.) for 2 months. Here is the method:
9-nitro-20(S)-camptothecin (9NC) was encapsulated in oral dosage of gelules containing 1 mg 9NC by a registered pharmacist. When 9NC is left at room temperature (25° C.) for 2 months, the loss of activity is minimal and has been estimated to be less than 5%+4.6%. Determination of activity has been done by HPLC. The gelules are preferably stored in freezers.

Another series deals with dogs. The series can be described thus: Toxicology studies in dogs. In kind it is in vivo.
[3] abbreviates: of 9 patients, oral, starting dose 2 mg/m^2 daily for 5 days every week.

Structures are written as SMILES.

For `CC[C@@]1(O)C(=O)OCc2c1cc1n(c2=O)Cc2cc3c([N+](=O)[O-])cccc3nc2-1` [9NC, 9-nitro-20(S)-camptothecin], in series [1] (in all 8 patients with splenomegaly), the spleen response result is listed as “at least minor spleen response”. In addition, the entries for the “patients resistant to the treatment” value (in series [1] (setting [3]); in the series on CMML (of 7 patients)) were 2 patients and 1 patient, respectively. For the same compound, the patients stable in series [1] (setting [3]) worked out at 1 patient. Moreover, in series [1] (setting [3]), the “patients with complete remission” value came to 2 patients. The “patients with partial remission” value turned out to be 4 patients in series [1] (setting [3]) and 2 patients in the series on CMML (of 7 patients, oral, starting dose 2 mg/m^2 daily for 5 days every week). The “objective response (OR)” value in series [1] (responders/patients, oral, starting dose 2 mg/m^2 daily for 5 days every week) is 6/9; with CMML (responders/patients), 6/7. Besides, the primary toxicity result in the series on mice and in the series with dogs was “intestinal” throughout. For the same compound, the “patients with hematologic improvement in WBC or splenomegaly” value in the series with CMML (of 7 patients) is on record as 4 patients. In the series with MDS of the RAEB type, the “response by MDS criteria” value is “complete remission”. Also, the “patients who did not show response to the treatment” value with Ph-positive CML came to 6 patients. Also, the “patients with complete response hematologically and cytogenetically” value in the series on Ph-positive CML (oral, starting dose 2 mg/m^2 daily for 5 days every week) came out at 1 patient. For the same compound, the “patients with minor spleen response” value in the series on Ph-positive CML (patient in accelerated phase) is 1 patient. Also, the loss of activity entry in series [2] is listed as “less than 5%+4.6%”. The tolerability result with dogs (1.0 mg/kg/day, administered for over 2 months) is “well tolerated”.
